Series [1] concerns MDA-MB-231. Briefly: Antiproliferative activity against human MDA-MB-231 cells assessed as inhibition of cell viability incubated for 72 hrs by MTT assay. The following applies: MDA-MB-231, 72 h. The format is functional, cell-based. (Tetrazolium dyes change colour on reduction, which living cells bring about.)
Series [2] concerns A-375. Briefly: Cytotoxicity against human A-375 cells assessed as reduction in cell vaibility measured at 24 hrs in presence of BNPP by MTT assay. The format is functional, cell-based. The following applies: A-375, 24 h.
Series [3] can be described thus: Apparent permeability across basolateral to apical side in human Caco-2 cells at 2 uM measured after 2 hrs by LC-MS/MS analysis. In kind it is ADME, cell-based.
The target of series [4] is Pyruvate dehydrogenase kinase (Homo sapiens) (UniProt Q15119+Q15120+Q16654+Q15118). Put plainly: Inhibition of PDK in human A-375 cells assessed as reduction in PDH phosphorylation at ser293 residue at 5 to 20 uM after 24 to 48 hrs. The format is cell-based. The following applies: dose 5-20 µM, time 24-48 hrs.
Series [5] concerns A-375. Briefly: Antitumor activity against human A-375 cells xenografted in nude mouse assessed as decrease in bcl-2 expression at 40 mg/kg, ip measured once every two days for 14 days by immunohistochemistry assay. In kind it is functional, organism-based. The settings on record: time 14.0 day. In general terms: In xenograft studies the graft and the host belong to different species.

The source made the active and inactive calls. No cut-off for these calls is given here.

Consider `O=C(CCCCCCCCC[P+](c1ccc(C(F)(F)F)cc1)(c1ccc(C(F)(F)F)cc1)c1ccc(C(F)(F)F)cc1)NC(COC(=O)CCCc1ccccc1)(COC(=O)CCCc1ccccc1)COC(=O)CCCc1ccccc1.[Br-]`, for which the IC50 was 3.71 µM in series [1] and 28.4 µM in series [2]. Besides, the Papp B→A at 2 h, 2 µM in series [3] was 16.8 ×10⁻⁶ cm/s. For the same molecule, the inhibition entry in series [4] was “Active”. In series [5], the outcome was Active.

The term IC50 denotes the concentration that inhibits the measured activity by half. Usually Papp B→A stands for how fast a substance crosses the layer from the basolateral side.

The values are drawn from ChEMBL document CHEMBL5120920, “A Mitochondria-Targeted Phenylbutyric Acid Prodrug Confers Drastically Improved Anticancer Activities” (J Med Chem, 2022).
